# Results reported in article PMC6620010, “Purification and characterization of Terfezia claveryi TcCAT-1, a desert truffle catalase upregulated in mycorrhizal symbiosis” (PLoS ONE, 2019).
# System: T1, TcCAT-1
# T1 construct: native, purified from wild ascocarps (Zarzadilla de Totana, Lorca, Murcia, Spain); large-subunit monofunctional heme catalase, Clade 2, L2 group
# Assay: H2O2 decomposition at […] nm
# Format: biochemical, Terfezia claveryi
# Settings: 10 mM H2O2, 0.1 M sodium phosphate pH 7.0, room temperature
Compound,IC50 (text b58 prints 0.125 mM),IC50
OCCS [2-mercaptoethanol],130 ± 20 µM,–
NO [hydroxylamine],–,0.1 ± 0.01 µM
